Source: patent US20230159436A1, “APPLICATIONS OF AMIDE ANALOGS OF TRITERPENES IN CURES OF CANCER AND OTHER DISEASES” (Pacific Arrow Limited, priority 2021, published 2023)
≈ marks a conversion by molar mass, not a printed value.

Assays:
[1] = tested on: ovarian cancer cells; assay: Inhibiting growth of ovarian cancer cells; type: cell-based
[2] = tested on: red blood cells (RBC); assay: Haemolytic assay; type: cell-based, human
Protocol: Erythrocytes (RBC) were isolated from human blood (EDTA whole blood, collected randomly). 50 ul of the 10% RBC suspension (in PBS) was added to 2 ml of sample solutions (concentration range from 0.1 ug/ml to 400 ug/ml) in PBS. The mixture was vortexed briefly and sat for 60 min at room temperature. The mixture was spun at 3K for 10 min and the relative amounts of lysed hemoglobin in the supernatant were measured at 540 nm. The synthetic compounds of present application were tested with this method.

[3] = tested on: U2OS, H460, HTB-9, ES2, HCT116, Capan, OVCAR3, DU145, SK-Mel-5, KB, A498, MCF-7, HepG2, T98G, K562, HeLa; assay: MTT Cytotoxic Assay of reaction products and isolated compounds; type: cell-based
Source text: The peaks, fractions and compounds are selected according to the activities of times studies and the changes of peaks. Selecting the HPLC fractions for isolation is according to the cytotoxic activity of the reaction product obtained at a specific time. The compounds having strong to weak activities are selected and isolated. Selecting the HPLC fractions for isolation may be according to the cytotoxic activity of times studies and the change of peaks. The anti cancer activities are the MTT studies of bone (U2OS), lung (H460), bladder (HTB-9), ovary (ES2), colon (HCT116), pancreas (Capan), ovary (OVCAR3), prostate (DU145), skin (SK-Mel-5), mouth (KB), kidney (A498), breast (MCF-7), liver (HepG2), brain (T98G), luekemia (K562), cervix (HeLa).
Esterification, amidation, amination, or sulfonamidation of compound (A), (B), (C), (D1), (D2), (E), (F), (G), (H1), (H2), E4A, E4A2Y, E4D, E4D1, (P1), P(2), terpene, isoprene, triterpenes, hydroxylated triterpenes, with acyl halide, wherein the halide comprise chloride, bromide, fluoride and iodide, wherein the acyl halide comprise acyl chloride, wherein acyl chloride comprise tigloyl chloride, angeloyl chloride, acetyl chloride, crotonoyl chloride, 3,3-dimethylartyloyl chloride, senecioyl chloride, cinnamoyl chloride, pentenoyl chloride, hexanoyl chloride, benzoyl chloride, ethylbutyryl chloride, propionyl chloride, 2-propenoyl chloride, isobutyryl chloride, butyryl chloride, (2E)-2-pentenoyl chloride, 4-Pentenoyl chloride, 5-hexenoyl chloride, heptanoyl chloride, octanoyl chloride, nonanoyl chloride, decanoyl chloride, Lauroyl chloride, myristoyl chloride, oleoyl chloride. The compounds vary in composition when the time or temperature of the reaction is changed. The peaks, fractions and compounds are selected according to the activities of times studies and the changes of peaks. The compounds having strong to weak activities are selected and isolated. The anti cancer activities (Cytotoxic Assay) are the MTT studies of bone (U2OS), lung (H460), bladder (HTB-9), ovary (ES2), colon (HCT116), pancreas (Capan), ovary (OVCAR3), prostate (DU145), skin (SK-Mel-5), mouth (KB), kidney (A498), breast (MCF-7), liver (HepG2), brain (T98G), luekemia (K562), cervix (HeLa). The active esterification, amidation, amination, or sulfonamidation products are purified with HPLC. The reaction product of mixtures and individual compounds are tested with MTT Cytotoxic Assay. Details of method are in Experiment 3 of the present application. A second esterification of compound can be selected from the above experiment results to produce new active compounds. A partial esterification compound is selected from the above experiments to perform a second or repeated with a third esterification with different acyl chloride in order to produce new active compounds with the experiments in the present application. The active compounds of this invention are triterpenes in form of amine, sulfonamides, amide, and urea analogs, providing extremely stable activity in solution. They prolong the activities and duration of drug in a subject.
Cells. HTB-9 (bladder), HeLa-S3 (cervix), DU145 (prostate), H460 (lung), MCF-7 (breast), K562 (leukemia), HCT116 (colon), HepG2 (liver), U2OS (bone), T98G (brain), SK-MEL-5 (Skin) and OVCAR 3, ES2 (ovary), Pancreas (Capan), Mouth (KB), Kidney (A498).
MTT Assay. The procedure for MTT assay followed the method described by Carmichael et al. (1987) with modifications. The cells were seeded into a 96-well plate at for 24 hours before drug-treatment. The cells were then exposed to the drugs for 48, 72, or 96 hours. After the drug-treatment, MTT (0.5 mg/mL) was added to cultures and incubated for an hour. The formazan (product of the reduction of tetrazolium by viable cells) formed and was dissolved with DMSO and the O.D. at 490 nm, and was measured by an ELISA reader. The MTT level of the cells before drug-treatment was also measured (T0). […]

[4] = tested on: cancer growth, cancer invasion, cells invasion or cancer cell invasion; assay: Inhibition of cancer growth and invasion (anti-cancer activity); type: cell-based
Source text: The program is based on the purification methods and biological assays including the MTT assay as described in International Application No. PCT/US05/31900, filed Sep. 7, 2005, U.S. Ser. No. 11/289,142, filed Nov. 28, 2005, and U.S. Ser. No. 11/131,551, filed May 17, 2005, and PCT/US2008/002086, 1188-ALA-PCT, filed Feb. 15, 2008, Ser. No. 12/344,682, 1020-B1-US, filed Dec. 29, 2008, US009499577B2, filed Jun. 24, 2014. The details of Analysis of gene expression of ES2 cells after Y-treatment by Microarray, Data Analysis Methods and Western blot in PCT/US2008/002086, 1188-ALA-PCT, filed Feb. 15, 2008, and the cell invasion experiments methods in International Application PCT/US2010/0042240, filed Jul. 16, 2010.

Row | IC50 [1] [mg/L] | Compound | hemolytic activity [2] | Cytotoxicity activity [3] | anti-cancer activity [4] | inhibiting cancer growth, cancer invasion, cells invasion or cancer cell invasion [4]
1 | ~1.5 (≈ 1.33 µM) | C/C=C(/C)C(=O)O[C@@H]1[C@H](C)CC2C3=CCC4[C@@]5(C)CC[C@H](O[C@@H]6OC(C(=O)O)[C@@H](O)C(O[C@@H]7O[C@@H](CO)C(O)C7O)C6O[C@@H]6OC(CO)[C@H](O)C(O)C6O)C(C)(C)C5CC[C@@]4(C)[C@]3(C)[C@@H](O)[C@@H](O)[C@@]2(CO)[C@H]1OC(=O)/C(C)=C\C (stereo partly drawn) [Compound Y, 3-O-[β-D-galactopyranosyl (1→2)]-α-L-arabinofuranosy (1→3)-β-D-glucuronopyranosyl-21,22-O-diangeloyl-3β,15α,16α,21β,22α,28-hexahydroxyolean-12-ene] |  |  |  | 
2 |  | CC1(C)CC2C3=CCC4C5(C)CCC(O)C(C)(CN)C5CCC4(C)C3(C)CC(O)C2(CN)C(O)C1O (centres unmarked) [E4D] | no hemolytic activity | none and None | no anti-cancer activity | no effect
